# Experimental data published in PubChem BioAssay AID330 (DTP/NCI, 2004).
# Several values for one entry are separate records, joined by “and”; a condition that tells them apart may be missing. Equal values may be shown once. Toxic doses and inconclusive results are not listed.
# System: P388 leukemia ip, CD2F1 mice, survival T/C
# Experiment: NCI In Vivo Anticancer Drug Screen. Data for tumor model P388 Leukemia (intraperitoneal) in CD2F1 (CDF1) mice
# Conditions: endpoint: median survival time, higher = longer survival
# How it was run: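 Mice carrying the transplanted tumor received test compound or vehicle. Survival was recorded in each group, and the value is the treated-group measurement divided by that of the vehicle-treated control group.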
# [1] = dose: 6.25 mg/kg/injection, schedule: Q01DX005 (ip), vehicle: Klucel (hydroxypropylcellulose) (HPC)
# [2] = dose: 12.5 mg/kg/injection, schedule: Q01DX005 (ip), vehicle: Klucel (hydroxypropylcellulose) (HPC)
# [3] = dose: 25.0 mg/kg/injection, schedule: Q01DX005 (ip), vehicle: Klucel (hydroxypropylcellulose) (HPC)
# [4] = dose: 50.0 mg/kg/injection, schedule: Q01DX009 (ip), vehicle: Klucel (hydroxypropylcellulose) (HPC)
# [5] = dose: 100.0 mg/kg/injection, schedule: Q01DX009 (ip), vehicle: Klucel (hydroxypropylcellulose) (HPC)
# [6] = dose: 50.0 mg/kg/injection, schedule: Q01DX009 (ip), vehicle: saline with Tween-80
# [7] = dose: 100.0 mg/kg/injection, schedule: Q01DX009 (ip), vehicle: saline with Tween-80
# [8] = dose: 200.0 mg/kg/injection, schedule: Q01DX009 (ip), vehicle: saline with Tween-80
# [9] = dose: 60.0 mg/kg/injection, schedule: Q01DX005 (ip), vehicle: Klucel (hydroxypropylcellulose) (HPC)
# [10] = dose: 120.0 mg/kg/injection, schedule: Q01DX005 (ip), vehicle: Klucel (hydroxypropylcellulose) (HPC)
# [11] = dose: 240.0 mg/kg/injection, schedule: Q01DX005 (ip), vehicle: Klucel (hydroxypropylcellulose) (HPC)
# [12] = dose: 200.0 mg/kg/injection, schedule: Q01DX009 (ip), vehicle: Klucel (hydroxypropylcellulose) (HPC)
# [13] = dose: 50.0 mg/kg/injection, schedule: Q01DX005 (ip), vehicle: saline with Tween-80
# [14] = dose: 100.0 mg/kg/injection, schedule: Q01DX005 (ip), vehicle: saline with Tween-80
# [15] = dose: 100.0 mg/kg/injection, schedule: Q01DX001 (ip), vehicle: saline
# [16] = dose: 200.0 mg/kg/injection, schedule: Q01DX001 (ip), vehicle: saline
# [17] = dose: 400.0 mg/kg/injection, schedule: Q01DX001 (ip), vehicle: saline
# [18] = dose: 12.5 mg/kg/injection, schedule: Q01DX009 (ip), vehicle: distilled water + Tween-80
# [19] = dose: 25.0 mg/kg/injection, schedule: Q01DX009 (ip), vehicle: distilled water + Tween-80
# [20] = dose: 50.0 mg/kg/injection, schedule: Q01DX009 (ip), vehicle: distilled water + Tween-80
# [21] = dose: 100.0 mg/kg/injection, schedule: Q01DX009 (ip), vehicle: distilled water + Tween-80
# [22] = dose: 200.0 mg/kg/injection, schedule: Q01DX009 (ip), vehicle: distilled water + Tween-80
# [23] = dose: 100.0 mg/kg/injection, schedule: Q04DX003 (ip), vehicle: saline
# [24] = dose: 200.0 mg/kg/injection, schedule: Q04DX003 (ip), vehicle: saline
# [25] = dose: 400.0 mg/kg/injection, schedule: Q04DX003 (ip), vehicle: saline
compound,measurement,setting,value
Cc1c[nH]c2nc(C)n(-c3ccc(F)cc3)c(=N)c12,T/C,[1],100 % of control
same,T/C,[2],102 % of control
same,T/C,[3],100 % of control
NOCCCCCON,T/C,[4],100 % of control
same,T/C,[5],106 % of control
N/C(=C\S(=O)(=O)c1ccccc1)C12CC3CC(CC(C3)C1)C2,T/C,[6],94 % of control
same,T/C,[7],94 % of control
same,T/C,[8],87 % of control
S=P(Oc1ccccc1)(N1CCCCN1)N1CCCCN1,T/C,[9],97 % of control
same,T/C,[10],107 % of control
same,T/C,[11],100 % of control
CCOC(=O)c1c(N)c(C(=O)c2ccccc2)n2ccc3ccccc3c12,T/C,"dose: 100.0 mg/kg/injection, schedule: Q04DX002 (ip), vehicle: saline with Tween-80",100 % of control
same,T/C,"dose: 200.0 mg/kg/injection, schedule: Q04DX002 (ip), vehicle: saline with Tween-80",99 % of control
same,T/C,"dose: 400.0 mg/kg/injection, schedule: Q04DX002 (ip), vehicle: saline with Tween-80",92 % of control
CNC(=S)NNC1=NC(=S)NC1(C)C,T/C,"dose: 50.0 mg/kg/injection, schedule: Q01DX009 (ip), vehicle: saline",98 % of control
same,T/C,"dose: 100.0 mg/kg/injection, schedule: Q01DX009 (ip), vehicle: saline",103 % of control
same,T/C,"dose: 200.0 mg/kg/injection, schedule: Q01DX009 (ip), vehicle: saline",101 % of control
O=C1NC(=O)N(c2ccc(Cl)c(Cl)c2)C1=O,T/C,[4],94 % of control
same,T/C,[5],93 % of control
same,T/C,[12],94 % of control
CCS/C(=C/[P+](c1ccccc1)(c1ccccc1)c1ccccc1)SC,T/C,"dose: 6.25 mg/kg/injection, schedule: Q01DX005 (ip), vehicle: saline with Tween-80",101 % of control
[N-]=[N+]=Nc1ccc(NCCCCCC(=O)ON2C(=O)CCC2=O)c([N+](=O)[O-])c1,T/C,[13],106 % of control
same,T/C,[14],106 % of control
same,T/C,"dose: 200.0 mg/kg/injection, schedule: Q01DX005 (ip), vehicle: saline with Tween-80",106 % of control
OCC(O)C(O)C(O)C(O)c1nn[nH]n1 (configuration not stated),T/C,[15],95 % of control
same,T/C,[16],101 % of control
same,T/C,[17],92 % of control
COc1cccc(C(=O)N/N=C(\C#N)c2cccc(OC)c2)c1,T/C,[13],97 % of control
same,T/C,[14],94 % of control
C[As](C)SC1CCC2(C)C(=CCC3C4CCC(=O)C4(C)CCC32)C1 (configuration not stated),T/C,[18],92 % of control
same,T/C,[19],89 % of control and 96 % of control
same,T/C,[20],107 % of control and 97 % of control
same,T/C,[21],119 % of control and 121 % of control
same,T/C,[22],107 % of control and 90 % of control
O=C(Nc1ccc(S(=O)(=O)F)cc1)/C(=C/c1cccc([N+](=O)[O-])c1)c1ccccc1,T/C,[9],102 % of control
same,T/C,[10],98 % of control
same,T/C,[11],94 % of control
CC(C)Cc1cccc2c1CCCC2,T/C,"dose: 50.0 mg/kg/injection, schedule: Q01DX005 (ip), vehicle: suspension in saline",97 % of control
same,T/C,"dose: 100.0 mg/kg/injection, schedule: Q01DX005 (ip), vehicle: suspension in saline",97 % of control
same,T/C,"dose: 200.0 mg/kg/injection, schedule: Q01DX005 (ip), vehicle: suspension in saline",101 % of control
C/C(=N/NC(N)=S)C1CCC2C3CCC4CCCCC4(C)C3CC(O)C12C (configuration not stated),T/C,"dose: 12.5 mg/kg/injection, schedule: Q01DX009 (ip), vehicle: saline with Tween-80",101 % of control
same,T/C,"dose: 25.0 mg/kg/injection, schedule: Q01DX009 (ip), vehicle: saline with Tween-80",93 % of control
same,T/C,[6],92 % of control
S,T/C,[7],113 % of control
same,T/C,[8],115 % of control
same,T/C,"dose: 400.0 mg/kg/injection, schedule: Q01DX009 (ip), vehicle: saline with Tween-80",113 % of control
CC(C)(C)OC(=O)C(C(=O)OC(C)(C)C)=C1C(=O)OCC1(C)C,T/C,[23],95 % of control
same,T/C,[24],103 % of control
same,T/C,[25],98 % of control
O=C(O)c1cnc2cc(F)ccc2c1Nc1ccc2c(c1)OCO2,T/C,"dose: 60.0 mg/kg/injection, schedule: Q01DX005 (ip), vehicle: Klucel + Tween-80",97 % of control
same,T/C,"dose: 120.0 mg/kg/injection, schedule: Q01DX005 (ip), vehicle: Klucel + Tween-80",94 % of control
same,T/C,"dose: 240.0 mg/kg/injection, schedule: Q01DX005 (ip), vehicle: Klucel + Tween-80",89 % of control
Nc1ccc(-c2nc3ccccc3[nH]2)cc1,T/C,"dose: 50.0 mg/kg/injection, schedule: Q04DX003 (ip), vehicle: saline",100 % of control
same,T/C,[23],100 % of control
same,T/C,[24],96 % of control
O=C(CCSSc1ccccn1)ON1C(=O)CCC1=O,T/C,[15],102 % of control
same,T/C,[16],107 % of control
same,T/C,[17],100 % of control
CCOC(=O)CNC1CC(O[C@H]2C[C@](O)(C(C)=O)Cc3c(O)c4c(c(O)c32)C(=O)c2c(OC)cccc2C4=O)OC(C)C1O (some centres not stated),T/C,"dose: 25.0 mg/kg/injection, schedule: Q04DX003 (ip), vehicle: Klucel (hydroxypropylcellulose) (HPC)",103 % of control
same,T/C,"dose: 50.0 mg/kg/injection, schedule: Q04DX003 (ip), vehicle: Klucel (hydroxypropylcellulose) (HPC)",110 % of control
same,T/C,"dose: 100.0 mg/kg/injection, schedule: Q04DX003 (ip), vehicle: Klucel (hydroxypropylcellulose) (HPC)",109 % of control
same,T/C,"dose: 200.0 mg/kg/injection, schedule: Q04DX003 (ip), vehicle: Klucel (hydroxypropylcellulose) (HPC)",100 % of control
CNc1ccccc1CO,T/C,"dose: 100.0 mg/kg/injection, schedule: Q04DX003 (ip), vehicle: other",95 % of control
same,T/C,"dose: 200.0 mg/kg/injection, schedule: Q04DX003 (ip), vehicle: other",95 % of control
same,T/C,"dose: 400.0 mg/kg/injection, schedule: Q04DX003 (ip), vehicle: other",90 % of control
N#Cc1ccc[n+](CC(=O)c2ccc3ccccc3c2)c1,T/C,[1],103 % of control
same,T/C,[2],103 % of control
same,T/C,[3],100 % of control
O=Nc1sc(=S)n(N2CCCCC2)c1O,T/C,"dose: 50.0 mg/kg/injection, schedule: Q01DX005 (ip), vehicle: Klucel (hydroxypropylcellulose) (HPC)",99 % of control
same,T/C,"dose: 100.0 mg/kg/injection, schedule: Q01DX005 (ip), vehicle: Klucel (hydroxypropylcellulose) (HPC)",96 % of control
CC1C/C=C\COC(=O)CC(C)(C)CC1=O (configuration not stated),T/C,[23],99 % of control
same,T/C,[24],99 % of control
same,T/C,[25],95 % of control
O=C1NC(=O)C2(CC3CCCCC3CC2c2ccccc2)N1 (configuration not stated),T/C,"dose: 100.0 mg/kg/injection, schedule: Q04DX003 (ip), vehicle: saline with Tween-80",89 % of control
same,T/C,"dose: 200.0 mg/kg/injection, schedule: Q04DX003 (ip), vehicle: saline with Tween-80",91 % of control
same,T/C,"dose: 400.0 mg/kg/injection, schedule: Q04DX003 (ip), vehicle: saline with Tween-80",100 % of control
O=C(Nc1ccc(C(=O)O)cc1)Nc1nccs1,T/C,[18],89 % of control
same,T/C,[19],118 % of control
same,T/C,[20],122 % of control
same,T/C,[21],150 % of control
same,T/C,[22],163 % of control
O=C1Nc2ccc(Cl)cc2C(c2ccccc2)=NC1O (configuration not stated),T/C,"dose: 12.5 mg/kg/injection, schedule: Q01DX009 (ip), vehicle: Klucel (hydroxypropylcellulose) (HPC)",97 % of control
same,T/C,"dose: 25.0 mg/kg/injection, schedule: Q01DX009 (ip), vehicle: Klucel (hydroxypropylcellulose) (HPC)",97 % of control
same,T/C,[4],108 % of control
same,T/C,[5],89 % of control
same,T/C,[12],111 % of control
same,T/C,"dose: 400.0 mg/kg/injection, schedule: Q01DX009 (ip), vehicle: Klucel (hydroxypropylcellulose) (HPC)",99 % of control
